Publication PMC10698032, “A monoacylglycerol lipase inhibitor showing therapeutic efficacy in mice without central side effects or dependence” (Nature Communications, 2023)

Legend:
[1] = target: T1, hormone-sensitive lipase (HSL) (Homo sapiens, UniProt Q05469); test: gel-based competitive ABPP (FP-TAMRA) on HEK293T membranes expressing human HSL; type: cell-based
T1 construct: gene LIPE; full-length, C-terminal FLAG-tag, expressed in HEK293T

[2] = target: T2, hormone-sensitive lipase (HSL) (Mus musculus, UniProt P54310); test: MS chemical proteomics on mouse tissues; gel-based competitive ABPP on recombinant mouse HSL; type: cell-based
T2 construct: gene Lipe; full-length, C-terminal FLAG-tag, expressed in HEK293T; endogenous in mouse tissue proteomes

5-HT transporter (h) = target: T3, 5-HT transporter (h) (Homo sapiens, UniProt P31645); test: biochemical; parameters: CEREP off-target panel, radioligand binding, inhibition of control specific binding; settings: read-out: % Inhibition of Control Specific Binding, Mean
T3 construct: gene SLC6A4

[3] = target: T4, Potassium Channel hERG (human) (Homo sapiens, UniProt Q12809); test: in vitro; parameters: CEREP off-target panel, radioligand binding, inhibition of control specific binding; settings: read-out: % Inhibition of Control Specific Binding, Mean
T4 construct: gene KCNH2
Text: (§1) Mass spectrometry (MS)-based chemical proteomics experiments emulated these findings (Fig. 3d).

dopamine transporter(h) = target: T5, dopamine transporter(h) (Homo sapiens, UniProt Q01959); test: biochemical; parameters: CEREP off-target panel, radioligand binding, inhibition of control specific binding; settings: read-out: % Inhibition of Control Specific Binding, Mean
T5 construct: gene SLC6A3
Text: as §1

[4] = target: T6, norepinephrine transporter(h) (Homo sapiens, UniProt P23975); test: biochemical; parameters: CEREP off-target panel, radioligand binding, inhibition of control specific binding; settings: read-out: % Inhibition of Control Specific Binding, Mean
T6 construct: gene SLC6A2
Text: as §1

[5] = target: T7, 5-HT1B (h) (antagonist radioligand) (Homo sapiens, UniProt P28222); test: biochemical; parameters: CEREP off-target panel, radioligand binding, inhibition of control specific binding; settings: read-out: % Inhibition of Control Specific Binding, Mean
T7 construct: gene HTR1B; antagonist radioligand

[6] = target: T8, CB1(h) (agonist radioligand) (Homo sapiens, UniProt P21554); test: biochemical; parameters: CEREP off-target panel, radioligand binding, inhibition of control specific binding; settings: read-out: % Inhibition of Control Specific Binding, Mean
T8 construct: gene CNR1; agonist radioligand

[7] = target: T9, CCK1 (CCKA) (h) (agonist radioligand) (Homo sapiens, UniProt P32238); test: biochemical; parameters: CEREP off-target panel, radioligand binding, inhibition of control specific binding; settings: read-out: % Inhibition of Control Specific Binding, Mean
T9 construct: gene CCKAR; agonist radioligand

[8] = target: T10, ETA(h) (agonist radioligand) (Homo sapiens, UniProt P25101); test: biochemical; parameters: CEREP off-target panel, radioligand binding, inhibition of control specific binding; settings: read-out: % Inhibition of Control Specific Binding, Mean
T10 construct: gene EDNRA; agonist radioligand

[9] = target: T11, H2(h) (antagonist radioligand) (Homo sapiens, UniProt P25021); test: biochemical; parameters: CEREP off-target panel, radioligand binding, inhibition of control specific binding; settings: read-out: % Inhibition of Control Specific Binding, Mean
T11 construct: gene HRH2; antagonist radioligand

[10] = target: T12, M2 (h) (antagonist radioligand) (Homo sapiens, UniProt P08172); test: biochemical; parameters: CEREP off-target panel, radioligand binding, inhibition of control specific binding; settings: read-out: % Inhibition of Control Specific Binding, Mean
T12 construct: gene CHRM2; antagonist radioligand

[11] = target: T13, α1A(h) (antagonist radioligand) (Homo sapiens, UniProt P35348); test: biochemical; parameters: CEREP off-target panel, radioligand binding, inhibition of control specific binding; settings: read-out: % Inhibition of Control Specific Binding, Mean
T13 construct: gene ADRA1A; antagonist radioligand

[12] = target: T14, α2A(h) (antagonist radioligand) (Homo sapiens, UniProt P08913); test: biochemical; parameters: CEREP off-target panel, radioligand binding, inhibition of control specific binding; settings: read-out: % Inhibition of Control Specific Binding, Mean
T14 construct: gene ADRA2A; antagonist radioligand

[13] = target: T15, β1(h) (agonist radioligand) (Homo sapiens, UniProt P08588); test: biochemical; parameters: CEREP off-target panel, radioligand binding, inhibition of control specific binding; settings: read-out: % Inhibition of Control Specific Binding, Mean
T15 construct: gene ADRB1; agonist radioligand

[14] = target: T16, δ (DOP) (h) (agonist radioligand) (Homo sapiens, UniProt P41143); test: biochemical; parameters: CEREP off-target panel, radioligand binding, inhibition of control specific binding; settings: read-out: % Inhibition of Control Specific Binding, Mean
T16 construct: gene OPRD1; agonist radioligand

[15] = target: T17, MAGL (monoacylglycerol lipase) (Mus musculus, UniProt O35678); test: gel-based competitive ABPP (FP-TAMRA, MB064) in mouse brain membrane proteome; type: biochemical; parameters: gene Mgll; endogenous, mouse brain proteome
T17 sequence (O35678 1-303): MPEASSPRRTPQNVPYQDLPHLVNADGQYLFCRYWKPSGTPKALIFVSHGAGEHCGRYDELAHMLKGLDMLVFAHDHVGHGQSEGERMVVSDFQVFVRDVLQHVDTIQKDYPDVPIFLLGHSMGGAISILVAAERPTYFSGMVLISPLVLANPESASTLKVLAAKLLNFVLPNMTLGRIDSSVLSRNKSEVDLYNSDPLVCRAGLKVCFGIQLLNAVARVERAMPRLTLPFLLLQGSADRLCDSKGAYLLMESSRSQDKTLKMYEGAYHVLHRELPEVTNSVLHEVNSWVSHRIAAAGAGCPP

T8 sequence (P21554 whole entry): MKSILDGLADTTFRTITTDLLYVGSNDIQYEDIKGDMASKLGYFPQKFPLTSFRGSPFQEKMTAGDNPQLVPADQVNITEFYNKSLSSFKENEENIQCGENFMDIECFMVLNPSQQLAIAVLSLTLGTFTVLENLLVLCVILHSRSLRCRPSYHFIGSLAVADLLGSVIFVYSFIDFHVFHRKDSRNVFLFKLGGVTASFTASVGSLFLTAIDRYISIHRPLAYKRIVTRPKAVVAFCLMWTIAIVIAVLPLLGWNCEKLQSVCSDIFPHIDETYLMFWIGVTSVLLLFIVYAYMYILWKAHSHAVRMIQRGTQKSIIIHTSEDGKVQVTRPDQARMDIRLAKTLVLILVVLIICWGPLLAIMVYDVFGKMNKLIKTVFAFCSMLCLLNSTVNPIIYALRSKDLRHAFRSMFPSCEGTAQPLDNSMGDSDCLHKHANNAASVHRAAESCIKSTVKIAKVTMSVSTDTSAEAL
T4 sequence (Q12809 whole entry): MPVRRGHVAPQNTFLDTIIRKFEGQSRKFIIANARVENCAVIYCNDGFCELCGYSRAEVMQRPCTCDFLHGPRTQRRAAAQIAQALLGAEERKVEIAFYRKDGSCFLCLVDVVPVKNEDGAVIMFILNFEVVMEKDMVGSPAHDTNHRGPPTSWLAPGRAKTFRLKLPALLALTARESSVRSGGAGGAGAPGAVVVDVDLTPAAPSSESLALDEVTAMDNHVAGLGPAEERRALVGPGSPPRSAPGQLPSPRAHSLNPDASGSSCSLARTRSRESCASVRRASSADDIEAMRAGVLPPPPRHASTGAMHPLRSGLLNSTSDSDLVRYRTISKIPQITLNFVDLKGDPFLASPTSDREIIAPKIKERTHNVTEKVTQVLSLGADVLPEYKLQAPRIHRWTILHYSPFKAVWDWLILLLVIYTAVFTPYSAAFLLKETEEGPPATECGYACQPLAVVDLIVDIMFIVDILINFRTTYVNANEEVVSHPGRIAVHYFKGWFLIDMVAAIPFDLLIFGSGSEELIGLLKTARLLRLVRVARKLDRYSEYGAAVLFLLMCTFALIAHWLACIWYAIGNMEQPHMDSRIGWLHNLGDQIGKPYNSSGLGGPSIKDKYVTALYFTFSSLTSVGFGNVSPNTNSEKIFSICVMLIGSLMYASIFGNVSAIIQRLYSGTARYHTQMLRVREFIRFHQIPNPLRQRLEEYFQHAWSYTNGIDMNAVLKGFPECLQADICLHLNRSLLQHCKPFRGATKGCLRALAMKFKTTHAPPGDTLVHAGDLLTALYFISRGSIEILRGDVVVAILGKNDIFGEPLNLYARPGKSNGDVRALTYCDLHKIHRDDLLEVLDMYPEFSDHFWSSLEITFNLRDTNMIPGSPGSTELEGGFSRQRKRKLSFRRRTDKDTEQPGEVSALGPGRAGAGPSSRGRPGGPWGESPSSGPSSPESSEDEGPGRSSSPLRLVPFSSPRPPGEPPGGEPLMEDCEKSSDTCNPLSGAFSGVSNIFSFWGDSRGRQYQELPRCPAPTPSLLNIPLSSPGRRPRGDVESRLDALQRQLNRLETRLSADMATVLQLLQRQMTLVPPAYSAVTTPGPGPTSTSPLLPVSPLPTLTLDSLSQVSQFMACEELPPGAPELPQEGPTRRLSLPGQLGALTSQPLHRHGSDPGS
T12 sequence (P08172 whole entry): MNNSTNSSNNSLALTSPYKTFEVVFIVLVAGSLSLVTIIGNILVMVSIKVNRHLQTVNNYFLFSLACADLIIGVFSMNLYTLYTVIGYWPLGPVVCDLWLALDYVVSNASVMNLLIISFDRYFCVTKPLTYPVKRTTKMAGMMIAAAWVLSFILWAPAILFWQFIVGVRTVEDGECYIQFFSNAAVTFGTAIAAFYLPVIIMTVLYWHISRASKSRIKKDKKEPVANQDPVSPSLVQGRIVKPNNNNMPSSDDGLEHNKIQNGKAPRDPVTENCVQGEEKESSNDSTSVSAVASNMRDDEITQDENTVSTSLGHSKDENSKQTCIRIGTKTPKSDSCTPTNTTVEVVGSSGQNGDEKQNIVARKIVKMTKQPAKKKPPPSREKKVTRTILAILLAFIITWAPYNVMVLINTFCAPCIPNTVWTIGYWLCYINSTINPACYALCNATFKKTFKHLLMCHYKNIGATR
T10 sequence (P25101 whole entry): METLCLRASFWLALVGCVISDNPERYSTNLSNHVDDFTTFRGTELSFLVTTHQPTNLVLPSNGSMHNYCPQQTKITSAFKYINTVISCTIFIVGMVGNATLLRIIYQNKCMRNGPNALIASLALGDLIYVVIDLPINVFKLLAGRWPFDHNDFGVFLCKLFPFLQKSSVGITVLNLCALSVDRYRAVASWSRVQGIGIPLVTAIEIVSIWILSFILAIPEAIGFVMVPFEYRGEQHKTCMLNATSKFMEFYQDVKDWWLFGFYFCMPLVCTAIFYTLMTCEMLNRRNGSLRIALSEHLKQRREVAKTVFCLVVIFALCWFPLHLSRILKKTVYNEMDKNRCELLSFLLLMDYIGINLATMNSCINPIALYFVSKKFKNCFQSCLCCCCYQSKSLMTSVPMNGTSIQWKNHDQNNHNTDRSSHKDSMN
T5 sequence (Q01959 whole entry): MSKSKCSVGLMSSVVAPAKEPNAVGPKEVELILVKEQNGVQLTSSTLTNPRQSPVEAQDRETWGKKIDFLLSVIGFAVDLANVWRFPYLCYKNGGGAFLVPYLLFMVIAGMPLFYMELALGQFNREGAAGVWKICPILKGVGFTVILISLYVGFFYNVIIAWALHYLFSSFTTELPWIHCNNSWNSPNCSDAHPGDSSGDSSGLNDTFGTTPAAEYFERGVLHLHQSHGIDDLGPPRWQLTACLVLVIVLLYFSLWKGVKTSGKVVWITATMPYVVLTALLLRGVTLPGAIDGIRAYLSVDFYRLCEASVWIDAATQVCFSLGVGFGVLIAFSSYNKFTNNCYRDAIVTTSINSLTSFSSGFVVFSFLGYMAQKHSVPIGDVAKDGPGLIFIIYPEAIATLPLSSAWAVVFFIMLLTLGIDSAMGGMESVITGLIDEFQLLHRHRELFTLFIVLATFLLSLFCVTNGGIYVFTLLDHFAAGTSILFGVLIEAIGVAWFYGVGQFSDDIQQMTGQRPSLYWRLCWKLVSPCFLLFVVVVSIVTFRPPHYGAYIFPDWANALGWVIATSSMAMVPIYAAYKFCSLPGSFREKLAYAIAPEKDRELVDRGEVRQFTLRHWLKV
T16 sequence (P41143 whole entry): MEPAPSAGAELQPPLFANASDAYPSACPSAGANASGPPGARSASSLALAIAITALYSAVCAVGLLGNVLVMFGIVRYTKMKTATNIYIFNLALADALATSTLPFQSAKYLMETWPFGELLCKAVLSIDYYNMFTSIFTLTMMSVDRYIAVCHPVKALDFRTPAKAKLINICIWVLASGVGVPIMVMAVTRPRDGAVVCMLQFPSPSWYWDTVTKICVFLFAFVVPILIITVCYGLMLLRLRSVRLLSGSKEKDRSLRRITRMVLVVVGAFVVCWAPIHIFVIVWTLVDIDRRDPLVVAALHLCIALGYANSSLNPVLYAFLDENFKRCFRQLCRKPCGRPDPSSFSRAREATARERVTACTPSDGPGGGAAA
T1 sequence (Q05469 whole entry): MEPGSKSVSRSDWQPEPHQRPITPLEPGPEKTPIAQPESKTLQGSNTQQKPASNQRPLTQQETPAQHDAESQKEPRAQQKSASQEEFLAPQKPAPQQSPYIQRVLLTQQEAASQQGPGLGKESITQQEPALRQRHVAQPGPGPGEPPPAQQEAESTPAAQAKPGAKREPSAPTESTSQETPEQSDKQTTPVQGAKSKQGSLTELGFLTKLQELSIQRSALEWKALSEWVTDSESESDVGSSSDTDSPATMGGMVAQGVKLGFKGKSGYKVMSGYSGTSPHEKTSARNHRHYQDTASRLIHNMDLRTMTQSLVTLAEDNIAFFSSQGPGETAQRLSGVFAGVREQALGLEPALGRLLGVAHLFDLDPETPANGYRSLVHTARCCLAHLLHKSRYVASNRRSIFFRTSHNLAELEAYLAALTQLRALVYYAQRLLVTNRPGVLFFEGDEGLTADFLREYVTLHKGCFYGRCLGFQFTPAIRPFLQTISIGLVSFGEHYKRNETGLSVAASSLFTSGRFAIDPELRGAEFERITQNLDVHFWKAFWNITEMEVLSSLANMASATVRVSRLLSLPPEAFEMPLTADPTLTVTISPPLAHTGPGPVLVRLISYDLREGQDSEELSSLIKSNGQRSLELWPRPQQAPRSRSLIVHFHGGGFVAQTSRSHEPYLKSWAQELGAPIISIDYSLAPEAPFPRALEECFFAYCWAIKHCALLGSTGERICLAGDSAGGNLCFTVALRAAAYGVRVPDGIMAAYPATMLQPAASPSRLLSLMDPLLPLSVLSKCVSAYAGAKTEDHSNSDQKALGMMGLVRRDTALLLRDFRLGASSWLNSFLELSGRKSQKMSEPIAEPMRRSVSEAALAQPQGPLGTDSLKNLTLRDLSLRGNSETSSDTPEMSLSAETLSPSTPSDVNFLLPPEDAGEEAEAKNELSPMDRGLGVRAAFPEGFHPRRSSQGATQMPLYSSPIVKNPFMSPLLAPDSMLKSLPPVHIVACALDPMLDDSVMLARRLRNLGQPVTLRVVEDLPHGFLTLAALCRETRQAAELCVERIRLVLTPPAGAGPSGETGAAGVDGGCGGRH
T11 sequence (P25021 whole entry): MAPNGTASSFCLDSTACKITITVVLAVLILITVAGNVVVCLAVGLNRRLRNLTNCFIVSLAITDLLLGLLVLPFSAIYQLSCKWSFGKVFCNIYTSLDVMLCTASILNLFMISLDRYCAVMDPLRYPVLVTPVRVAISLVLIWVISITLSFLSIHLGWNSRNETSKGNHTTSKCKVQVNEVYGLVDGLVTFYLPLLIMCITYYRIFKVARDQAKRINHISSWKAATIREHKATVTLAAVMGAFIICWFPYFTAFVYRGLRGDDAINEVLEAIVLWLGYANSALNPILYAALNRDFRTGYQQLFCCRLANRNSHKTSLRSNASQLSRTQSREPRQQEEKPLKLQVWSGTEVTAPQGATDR

`CCC(F)(F)C(=O)C[S+]([O-])c1ccc(C(=O)N2CCN(c3cccc(Cl)c3)[C@@H](C)[C@@H]2C)cc1Cl` (mixture of isomers) [compound 3, LEI-515] was tested, and the “gel-based competitive ABPP (FP-TAMRA) on HEK293T membranes expressing human HSL” value [1] was “confirmed by gel-based ABPP experiments using membrane fractions of HEK293T cells expressing recombinant human or mouse HSL”, the “MS chemical proteomics on mouse tissues; gel-based competitive ABPP on recombina” value [2] was “hormone-sensitive lipase (HSL) was identified as main off-target in lung, liver, and brain” and the inhibition at 10 µM (5-HT transporter (h)) was 4.2%. For the same compound, the inhibition at 10 µM [3] was 5.8%, the inhibition at 10 µM (dopamine transporter(h)) was 45.2% and the inhibition at 10 µM [4] was 25.3%. The inhibition at 10 µM [5] was 24.2%, the inhibition at 10 µM [6] was 22.3% and the inhibition at 10 µM [7] was 19.5%. For the same compound, the inhibition at 10 µM [8] was -8%, the inhibition at 10 µM [9] was -26% and the inhibition at 10 µM [10] was -4.2%. The inhibition at 10 µM [11] was 3.5%, the inhibition at 10 µM [12] was 18.3% and the inhibition at 10 µM [13] was 6.6%. For the same compound, the inhibition at 10 µM [14] was 48.3% and the IC50 [15] was 0.025 µM.
